Test results published in patent US10076576B2, “Minimally toxic prodrugs” (priority 2012, dated 2018).

Test system: LS-174T tumor cell secreted peptidases
Assay: Reactivation assay in LS174T tumor cell conditioned medium
Format: biochemical, human
Conditions: 5 h at 37° C.
Protocol: Sub-confluent cultures of LS-174T tumor cells were washed twice with a saline phosphate buffer solution, and fresh culture medium (DMEM-F12 without phenol red) containing 0.02% bovine serum albumin is added (100 μl/cm^2). After 24 hours incubation, the conditioned medium is collected, centrifuged for 10 minutes at 300 g, buffered with 1 M Tris-HCl, pH 7.4 (1 volume of buffer+19 volumes of medium) and concentrated 20 times by […] (cutoff threshold of 10 kDa).
Drug compounds (50 μM) were incubated for 0, 1, 3 or 5 hours at 37° C. in the presence of freshly prepared LS174T tumor cell conditioned medium. Fifty μL of sample were collected at each time point and processed as described above for human plasma.

## COc1cccc2c1C(=O)c1c(O)c3c(c(O)c1C2=O)CC(O)(C(=O)CO)CC3OC1CC(NC(=O)C2CCCN2C(=O)CNC(=O)C(CC(C)C)NC(=O)C(C)NC(=O)CP(=O)(O)O)C(O)C(C)O1 (stereo not drawn) [PhAc-ALGP-Dox, PhAc-ALGP-doxorubicin]
50 μM compound
  % Metabolites released after 5 h (LS174T CM20xcc): 81 ± 31%
Metabolite Dox
  % Dox detected after 5 h (LS174T conditioned medium): 24%
Metabolite GP-Dox
  % GP-Dox detected after 5 h (LS174T conditioned medium): 56%
